Experiment: Rat plasma protein binding of docetaxel by equilibrium dialysis
Assay type: in vitro ADME
Conditions: equilibrium dialysis
Method: A 1 mL of the plasma was dialyzed against 1 mL of isotonic Sørensen phosphate buffer (pH 7.4) containing 3% dextran (w/v) in a dialysis cell (Spectrum Medical Industries, Laguna Hills, CA, USA) using a Spectra/Por 4 membrane (mol. wt. cutoff 12−14 KDa; Spectrum Medical Industries, USA).

CC(=O)O[C@@]12CO[C@@H]1C[C@H](O)[C@@]1(C)C(=O)[C@H](O)C3=C(C)[C@@H](OC(=O)[C@H](O)[C@@H](NC(=O)OC(C)(C)C)c4ccccc4)C[C@@](O)([C@@H](OC(=O)c4ccccc4)[C@H]21)C3(C)C [docetaxel]
Bound fraction to fresh rat plasma (with 0 μg/mL LC478): 30.6% ± 11.5%
Bound fraction to fresh rat plasma (with 0.1 μg/mL LC478): 33.4% ± 3.59%
Bound fraction to fresh rat plasma (with 10 μg/mL LC478): 29.7% ± 10.1%

From publication PMC6471177 (Pharmaceutics, 2019)
